Residues, ends and D or L forms follow the SMILES beside them. *: point of attachment. Boc = CC(C)(C)OC(=O)*
Row | melting point [°C] | SMILES
1 | 38 to 39 | CCCCCCCCCCCCNc1ccc(OCC)cc1
2 | 130 to 135 | [N-]=[N+]=NC1=C([C@H]2CC[C@H](c3ccc(Cl)cc3)CC2)C(=O)c2ccccc2C1=O
3 | 60 to 61 | CCOC(=O)C1=CCCCC1S(=O)(=O)Nn1cccc1Cl (stereo not given)
4 | 86 to 88 | CSC1=C(c2ccccc2)C(=O)N(Nc2ccccc2)C1=O
5 | > 200 | CC(C)(C)OC(=O)NCC(=O)NC(Cc1ccc(O)cc1)C(=O)NC(CCCCN)C(=O)O (stereo not drawn) (Boc-Gly-Tyr-Lys-OH; configuration not given here)
6 | 149 to 151 | COc1ccc2cc(C(C)C(=O)O)ccc2c1Br (stereo not given)
7 | 116 to 117 | Cc1cc(Oc2c(F)cc(C(F)(F)F)cc2Cl)n[nH]1
8 | 183 | COc1ccc(CNc2ncnc3c2ncn3C2OC(Cn3cc(C)nn3)C(O)C2O)cc1 (stereo not given)
9 | 94 to 95 | CSC(=NCCN(C)C)NC#N
10 | 164 to 167 | CC(C)(C)c1cc(CCC(=O)NCCNc2cccc(Cl)c2C#N)cc(C(C)(C)C)c1O
11 | 119 to 120 | Cc1ccc(S(=O)(=O)OCC2(CO)OC(n3ccc(=O)[nH]c3=O)C(O)C2O)cc1 (stereo not given)
12 | 166 to 168 | Cc1cc(C)c(Nc2nc(C)ncc2S(=O)(=O)c2ccc(OCc3ccccc3)cc2)c(C)c1
13 | 144 to 145 | CCC(CC)n1nnc2c(Nc3ccc(C(C)C)cc3Br)nc(C)cc21
14 | 62 to 64 | OC(CCCl)COc1ccc(Cl)cc1 (stereo not given)
15 | 190 to 192 | O=c1[nH]c2cc(Cl)c(S(=O)CCN3CCC(Cc4ccccc4)CC3)cc2o1 (stereo not given)
16 | 165 to 168 | O=C(O)c1cccc(-c2ccc(OC[C@H](O)CCc3cccnc3)cc2)c1
17 | 160 to 175 | COCCCNCc1ccc(-c2cc3ncnc(Nc4ccc5[nH]ccc5c4)c3s2)cc1
18 | 159 to 160 | C[C@@H]1C[C@H](C)CN(C(=O)[C@@H]2Cc3ccccc3N2c2cccnn2)C1
19 | 172 to 174 | O=[N+]([O-])c1ccc(Cn2c(-c3ccc4c(c3)OCO4)nc3ccccc32)cc1
20 | 171 to 173 | O=C(O)[C@H]1C[C@@H](CP(=O)(O)O)c2ccccc2N1 (relative stereo)
21 | 152 to 154 | Nc1ccccc1C(=O)NC1CCCCC1

Row | melting point [°C] | SMILES
22 | 109 to 110 | CC(=O)OCC(=O)c1ccc(-c2ccccc2)cc1
23 | 210 to 213 | COc1ccc(C(=O)Nc2c(Cl)cncc2Cl)c2c3cc(Cl)ccc3n(Cc3ccccc3)c12
24 | 87 to 88 | CCOC(=O)Cc1ccc(-c2nc(CCl)c(C)o2)cc1
25 | 242 | CC1(C)Oc2ccc(Br)cc2C(Oc2ccc(O)nn2)C1(C)O (stereo not given)
26 | 130 to 135 | Nc1ccc2c(c1N)CN(Cc1ccc(C(F)(F)F)cc1)CC2
27 | 241 to 242 | CC1(C)OC(=O)Nc2ccc(-c3ccc(C#N)[nH]3)cc21
28 | 205 to 208 | COC(=O)c1ccc2c(nc(C)n2C)c1C(=O)OC
29 | 152 to 154 | OC(C1=NCCN1)(c1ccccc1)c1ccccn1 (stereo not given)
30 | 91.3 to 91.8 | COc1ccc(C=CC(=O)c2ccccc2Br)c(OC)c1
31 | 112 to 118 | COc1ccc(-c2cc(CN3CCNCC3)c(=O)n(CC3CC3)n2)cc1F
32 | > 200 | Nc1nc(N)c2c(n1)CCC(Cc1cc(Cl)cc(Cl)c1)C2 (stereo not given)
33 | 256 | Cn1c(=O)c(C#N)c(Cl)c2cc(Cl)ccc21
34 | 94 to 96 | O=C1C(c2c[nH]c3ncccc23)=C(c2cn(S(=O)(=O)c3ccccc3)c3ccccc23)C(=O)N1COCc1ccccc1
35 | 127 to 128 | CNC(=O)c1cc(F)cc(Cl)c1Oc1cccc(OC)c1C
36 | 108 to 118 | CC(C)OC(=O)Cn1c(=O)n(C)c(=O)n(-c2cc(N=c3sc(=S)n4n3CCCCC4)c(F)cc2Cl)c1=O
37 | 230 to 234 | CC(Cc1c[nH]c2ccccc12)(NC(=O)OC1C2CC3CC(C2)CC1C3)C(=O)NC1CCCCC1C(=O)O (stereo not given)
38 | 138 to 140 | CNc1c(N)cnn1CCO
39 | 137 to 138 | O=c1c(-c2cccc(C(F)(F)F)c2Cl)nn(CCCCC(F)(F)F)c2cccc(Cl)c12
40 | 75 to 76 | C[C@H](C(=O)OCc1ccccc1)n1ccn(-c2ccc(OCC(F)(F)C(F)F)cc2)c1=O
41 | 120 to 122 | Cc1ncc(C#N)c(Cl)c1I
42 | 103 to 104 | CCC1(CSc2ccccc2C(=O)c2ccccc2)COC(=O)N1 (racemic)

More lines, now with the values behind:

Row | SMILES | melting point [°C]
43 | C=C(C)c1ccccc1S(=O)(=O)NC(=O)Nc1nc(C)cc(C)n1 | 177 to 183
44 | COC(=O)c1ccc2c(Br)nn(C)c2c1 | 122 to 125
45 | CC(C)(CO)Nc1nc(-c2ccc(C#N)c(F)c2)cs1 | 128 to 130
46 | CCc1nc2c(N)nc3cc(CCCNS(C)(=O)=O)ccc3c2n1CC1CCOCC1 | 168 to 170
47 | Cn1c(=O)n(CCCN2CCC3(CC2)C(=O)NCN3c2ccccc2)c2ccccc21 | 164
48 | [N-]=[N+]=NCCCc1cn(S(=O)(=O)c2c(Cl)nc3sccn23)c2ccc(F)cc12 | 84 to 86
49 | O=C(O)CCS(=O)(=O)O | 74.6
50 | NC(=O)N1CCN(c2n[nH]c3ccccc23)CC1 | 158 to 160
51 | N#Cc1c(SSc2cn(-c3c(Cl)cc(C(F)(F)F)cc3Cl)c(Cl)c2C#N)cn(-c2c(Cl)cc(C(F)(F)F)cc2Cl)c1Cl | 220
52 | NC(=O)c1csc(-c2cccc(N)c2)n1 | 173 to 174
53 | COc1ccc2c(C(=O)O)cc3cc(OC)c(OC)cc3c2c1 | 241 to 243
54 | C=C1N(Cc2ccccc2)C(=O)OC12CCN(Cc1ccccc1)CC2 | 113 to 114
55 | CCc1cc(C)c2c(-c3cccc(Cl)c3)cc(=S)n(C)c2n1 | 131 to 133
56 | C[C@H](c1ccccc1)N1C(=O)c2c(F)c(F)c(F)c(F)c2C1=O | 95.5 to 96
57 | COc1cccc(C(=O)Nc2c[nH]nc2C(=O)NCCC#N)c1 | 118 to 121
58 | CSc1ccc(C2=C(Cl)C(=O)OC2)cc1 | 156 to 158
59 | Cc1cccc(-c2cc(C(F)(F)F)n3ncc(C#N)c3n2)c1 | 202
60 | Cc1ccc(-c2[nH]c(-c3cnc4ccccc4c3)nc2C(=O)Nc2nccs2)cc1 | > 250
61 | C/C=C/C(=O)NCCc1ccc(F)cc1 | 121 to 123
62 | CC(C)C[C@H](NC(=O)N1CCCCCC1)C(=O)N[C@H](Cc1ccc(OCc2ccccc2)cc1)C(=O)OC(C)(C)C | 38 to 40

Row | SMILES | melting point [°C]
63 | COc1ccc(C2C(C(=O)/C=C/c3ccc(OCc4ccccc4)c(OC)c3)C(=O)CC(c3ccc(OCc4ccccc4)cc3)C2[N+](=O)[O-])cc1 (stereo not given) | 76 to 78
64 | O=C1NCCCN1c1ccccc1 | 210 to 211
65 | CC(c1ccc2[nH]c(C(F)(F)F)nc2c1)n1ccnc1 (stereo not given) | 165
66 | CCOC(=O)/C=C/c1cn(Cc2ccc3cc(OCc4ccccc4)ccc3c2)cc1-c1ccccc1 | 119 to 120
67 | Fc1ccc2c(-c3cccc(OC[C@@H]4CO4)c3)noc2c1 | 83 to 84
68 | O=C(O)CCc1ccc2c(c1)OC[C@@H](Cc1ccccc1)[C@@H]2O (relative stereo) | 161 to 162
69 | CS(=O)(=O)OCCc1ccc(-c2cccnc2)cc1 | 66 to 68
70 | NCCOCn1cnc2c(N)ncnc21 | 170 to 171
71 | Cc1cn(-c2cc(NC(=O)c3ccc(Cl)c(C#Cc4cnc(NC5CC5)nc4)c3)cc(C(F)(F)F)c2)cn1 | 163 to 165
72 | CC(=O)c1ccc(-c2nccn2C)cc1 | 88 to 93
73 | CCC1(CC)NC(C)(C)CN(c2ccccc2)C1=O | 54 to 56
74 | CCC12CCC3c4ccc(OC)cc4C(C)CC3C1CCC2=O (stereo not given) | 115 to 123
75 | CCn1nnnc1Cc1ccc(NC(=O)/C=C/c2cnn(C)c2-c2ccc(F)cc2)cc1 | 206 to 207
76 | CON=C(C)C(C)=NOc1ncccc1N(OC)C(=O)OC | 86 to 88
77 | O=C1CCC(c2ccc3c(c2)C2(CC2)C(=O)N3)=NN1 | 256 to 257
78 | COc1ccc(C#N)c(C)n1 | 80 to 80.5
79 | Cc1cc(C)c(COc2cccnc2NC(=S)Nc2ccc(Cl)cc2)c(C)c1 | 180 to 182
80 | O=C1NC(=O)c2c1c(-c1ccccc1Cl)cc1c2c2cc(O)ccc2n1CCCSc1ccccc1 | 229 to 231
81 | CSc1nc(C)n(-c2ccc(N)cc2)n1 | 130 to 136
82 | COc1cc(Nc2c(C#N)cnc3cc(-c4cc5ccccc5o4)ccc23)c(Cl)cc1Cl | 276 to 277

Row | SMILES | melting point [°C]
83 | CC(C)C(C)(C#N)N1C(=O)c2cc3ccccc3nc2C1=O (stereo not given) | 195 to 196
84 | CC1(C)O[C@@H](CN=C2OCc3ccccc32)[C@H](CN=C2OCc3ccccc32)O1 | 204
85 | Cc1nc2cccc(OCC(C)(C)NC(=O)CC3CCOCC3)c2c(N)c1C(=O)O | 175 to 178
86 | CC(=O)Nc1c(Cl)cc(CC(=O)O)cc1Cl | 209 to 211
87 | COc1cc(-c2cc(=O)c3ccc(OCC(O)CNC(C)C)cc3o2)cc(OC)c1OC (stereo not given) | 106 to 107
88 | CCCCCCCCCCCCCCCCCCSC(=O)Nc1ccccc1 | 85.5 to 86.5
89 | COc1ccc(OCC2SCCN2C(=O)CCl)cc1 (stereo not given) | 51 to 53
90 | ClC(Cl)=CCOc1cc(Cl)c(OCCCCOc2ccc(Cl)cc2)c(Cl)c1 | 54.5
91 | CC(C)CN1CCC2(CC1)CSC1=C(O2)c2ccccc2C(=O)C1=O | 158 to 161
92 | O=C(CCC1CCCCC1)NC1N=C(c2ccccc2)c2ccccc2-n2c1noc2=O (stereo not given) | 226
93 | O=c1c2ccccc2cnn1Cc1ccccc1 | 104 to 105
94 | COc1cc(-c2nc(-n3cncn3)c3c(C)c(C#N)sc3n2)cc(OC)c1OC | 236 to 240
95 | CCC(C)c1c(O)ccc2c1oc1ccc(C#N)cc12 (stereo not given) | 206 to 207
96 | Cc1c(C)c2c(c(C)c1NC(=O)c1ccc(F)cc1)C(c1ccc(C(C)C)cc1)C(C)(C)O2 (single isomer, unassigned; (+)) | 251 to 253
97 | CCCNC(=O)C1(CCCCN2CCC(NC(=O)OC(C)(C)C)CC2)c2ccccc2-c2ccccc21 | 118 to 120
98 | Cc1c(C)c2c(c(C)c1Br)C(c1ccccc1)CO2 (stereo not given) | 107 to 108
99 | CCOc1ccc2c(c1)n(C1CCCCC1)c(=O)n2S(=O)(=O)c1ccc(NC(=O)N(C)C(C)(C)C)cc1OC | 208
100 | CC#CCOc1cc(Oc2c(F)cccc2F)ncn1 | 79.8

Reference: a melting point compilation (Tetko et al.; mined from patent text by program, amines drawn as free bases though some values may be those of a salt)
